Results reported in patent publication US20230192661A1, “1, 4, 5, 6-TETRAHYDROPYRIMIDINE-2-AMINE DERIVATIVE” (UBE Corporation, priority 2020, published 2023).

Biological target: T1, αvβ6 (Homo sapiens, UniProt P06756+P18564)
T1 construct: endogenous in cells; host or cells: HT-29 cells
Experiment: αvβ6 cell adhesion inhibition test (HT-29 cells on recombinant human LAP protein)
Format: cell-based
Conditions: recombinant human LAP coating, 200 μM MnCl2, 1 hour, read-out: IC50 (rate of inhibition of cell adhesion, αvβ6)
Method: Test Example 2 was performed by partially modifying the method of Henderson et al. (Nat Med., 19 (12), 1617-24, 2013). In Test Example 2, the same reagents as in Test Example 1 were used unless otherwise specified.
Recombinant human LAP protein (manufactured by R&D Systems, Inc., 246-LP-025) was prepared at […] with PBS, dispensed at 100 μL/well to a 96-well plate, and left standing overnight. The plate was washed with HBSS, then subjected to blocking treatment with DMEM containing 1% BSA, and used as a coated plate in the adhesion test.
HT-29 cells cultured in McCoy's 5A medium (manufactured by Thermo Fisher Scientific, Inc., 16600) containing 10% FBS and 1% penicillin/streptomycin/amphotericin B were recovered and suspended in DMEM containing 0.1% BSA and 200 μM MnCl2 to prepare a cell suspension. A test compound was added thereto.
The cell suspension of 5×10^5 cells/mL containing the test compound was added at 100 μL/well to the coated plate and left standing for 1 hour in a 5% CO2 incubator (37° C.). One hour later, the supernatant was removed, and the plate was washed with HBSS containing 200 μM MnCl2. The cells that adhered to each well in the plate were stained with crystal violet, and the cells were lysed, followed by absorbance measurement. Inhibition without substrate coating was defined as 100% inhibition, and inhibition when DMSO was added instead of the test compound was defined as 0% inhibition. The rate of inhibition of cell adhesion by the test compound was calculated according to the following expression.
Rate of inhibition of cell adhesion (%)=[1−{(Absorbance in the case of adding the test compound)−(Absorbance without substrate coating)}/{(Absorbance in the case of adding DMS)−(Absorbance without substrate coating)}]×100
An IC50 value was calculated from the rate of inhibition of cell adhesion by the test compound. A: IC50<3 nM, B: 3 nM≤IC50<10 nM, C: 10 nM≤IC50<30 nM, D: 30 nM≤IC50<100 nM, or E: IC50≥100 nM.

T1 sequence (P06756 31-889 limits assumed): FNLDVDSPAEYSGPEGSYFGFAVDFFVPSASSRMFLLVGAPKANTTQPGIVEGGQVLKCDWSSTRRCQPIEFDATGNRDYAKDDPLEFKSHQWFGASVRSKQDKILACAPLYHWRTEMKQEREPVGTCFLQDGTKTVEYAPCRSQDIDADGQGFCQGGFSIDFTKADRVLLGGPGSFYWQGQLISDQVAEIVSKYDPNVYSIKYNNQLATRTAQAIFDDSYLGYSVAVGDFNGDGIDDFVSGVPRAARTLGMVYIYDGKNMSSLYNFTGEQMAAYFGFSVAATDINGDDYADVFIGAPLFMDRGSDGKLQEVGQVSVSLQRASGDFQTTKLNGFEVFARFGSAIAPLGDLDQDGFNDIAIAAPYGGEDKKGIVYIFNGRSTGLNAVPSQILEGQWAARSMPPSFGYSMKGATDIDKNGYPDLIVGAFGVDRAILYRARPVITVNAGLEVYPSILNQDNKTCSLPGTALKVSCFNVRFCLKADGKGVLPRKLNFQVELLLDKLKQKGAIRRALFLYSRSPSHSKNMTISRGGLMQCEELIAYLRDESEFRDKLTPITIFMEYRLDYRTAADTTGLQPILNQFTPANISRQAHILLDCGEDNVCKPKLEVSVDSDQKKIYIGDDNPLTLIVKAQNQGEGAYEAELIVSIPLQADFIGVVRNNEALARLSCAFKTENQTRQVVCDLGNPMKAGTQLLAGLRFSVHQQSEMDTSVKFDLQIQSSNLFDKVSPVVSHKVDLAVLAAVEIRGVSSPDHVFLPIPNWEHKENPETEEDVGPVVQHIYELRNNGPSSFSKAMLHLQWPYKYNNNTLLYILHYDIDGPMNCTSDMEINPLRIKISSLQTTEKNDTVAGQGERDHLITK
T1 sequence (P06756 891-1048 limits assumed): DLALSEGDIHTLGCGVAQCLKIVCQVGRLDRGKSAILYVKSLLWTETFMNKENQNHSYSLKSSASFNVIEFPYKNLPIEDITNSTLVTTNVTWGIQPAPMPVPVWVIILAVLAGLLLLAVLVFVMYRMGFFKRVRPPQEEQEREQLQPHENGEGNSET
T1 sequence (P18564 22-788): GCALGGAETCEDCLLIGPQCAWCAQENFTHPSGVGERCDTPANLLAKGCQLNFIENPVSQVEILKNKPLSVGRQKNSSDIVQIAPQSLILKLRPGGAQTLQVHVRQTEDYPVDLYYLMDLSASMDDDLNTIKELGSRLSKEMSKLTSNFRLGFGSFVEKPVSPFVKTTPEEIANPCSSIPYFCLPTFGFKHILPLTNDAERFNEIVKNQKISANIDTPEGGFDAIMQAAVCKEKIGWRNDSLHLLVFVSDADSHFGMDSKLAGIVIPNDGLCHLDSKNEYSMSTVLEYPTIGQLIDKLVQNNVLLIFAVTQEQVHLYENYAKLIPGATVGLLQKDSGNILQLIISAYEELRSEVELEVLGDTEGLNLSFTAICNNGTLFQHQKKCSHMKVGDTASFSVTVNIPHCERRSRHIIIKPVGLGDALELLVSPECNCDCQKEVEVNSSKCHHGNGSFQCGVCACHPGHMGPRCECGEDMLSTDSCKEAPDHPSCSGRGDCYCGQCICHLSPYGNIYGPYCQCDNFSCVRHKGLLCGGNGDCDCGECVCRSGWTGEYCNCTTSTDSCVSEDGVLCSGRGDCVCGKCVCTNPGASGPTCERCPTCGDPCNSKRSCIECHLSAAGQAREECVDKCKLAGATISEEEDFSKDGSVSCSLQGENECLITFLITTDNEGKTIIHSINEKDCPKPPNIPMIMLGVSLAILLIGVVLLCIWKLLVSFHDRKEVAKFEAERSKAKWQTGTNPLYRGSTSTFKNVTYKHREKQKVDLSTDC

SMILES	IC50 [nM]
O=C(O)C[C@H](NC(=O)CNC(=O)c1cc(NC2=NCC(F)CN2)c2cn[nH]c2c1)c1cc(Br)ccc1F (stereo partly drawn) [Example 23-(b), (3S)-3-(5-bromo-2-fluorophenyl)-3-(2-(4-((5-fluoro-1,4,5,6-tetrahydropyrimidin-2-yl)amino)-1H-indazole-6-carboxamido)acetamido)propanoic acid]	3 to 10
O=C(O)C[C@H](NC(=O)CNC(=O)c1cc(NC2=NCC(F)CN2)c2cn[nH]c2c1)c1cc(OC(F)F)cc(C(F)(F)F)c1 (stereo partly drawn) [Example 24-(b), (3S)-3-(3-(difluoromethoxy)-5-(trifluoromethyl)phenyl)-3-(2-(4-((5-fluoro-1,4,5,6-tetrahydropyrimidin-2-yl)amino)-1H-indazole-6-carboxamido)acetamido)propanoic acid]	< 3
O=C(O)C[C@H](NC(=O)CNC(=O)c1cc(NC2=NCC(F)CN2)c2cn[nH]c2c1)c1cc(Cl)cc(OC(F)F)c1 (stereo partly drawn) [Example 25-(b), (3S)-3-(3-chloro-5-(difluoromethoxy)phenyl)-3-(2-(4-((5-fluoro-1,4,5,6-tetrahydropyrimidin-2-yl)amino)-1H-indazole-6-carboxamido)acetamido)propanoic acid]	< 3
O=C(O)C[C@H](NC(=O)CNC(=O)c1cc(NC2=NCC(F)CN2)c2cn[nH]c2c1)c1cc(Br)cc(OC(F)F)c1 (stereo partly drawn) [Example 26-(b), (3S)-3-(3-bromo-5-(difluoromethoxy)phenyl)-3-(2-(4-((5-fluoro-1,4,5,6-tetrahydropyrimidin-2-yl)amino)-1H-indazole-6-carboxamido)acetamido)propanoic acid]	< 3
O=C(O)C[C@H](NC(=O)CNC(=O)c1cc(NC2=NCC(F)CN2)c2cn[nH]c2c1)c1ccc(F)c(OC(F)F)c1 (stereo partly drawn) [Example 27-(b), (3S)-3-(3-(difluoromethoxy)-4-fluorophenyl)-3-(2-(4-((5-fluoro-1,4,5,6-tetrahydropyrimidin-2-yl)amino)-1H-indazole-6-carboxamido)acetamido)propanoic acid]	3 to 10
O=C(O)C[C@H](NC(=O)CNC(=O)c1cc(NC2=NCC(F)CN2)c2cn[nH]c2c1)c1cc(OC(F)F)ccc1F (stereo partly drawn) [Example 28-(b), (3S)-3-(5-(difluoromethoxy)-2-fluorophenyl)-3-(2-(4-((5-fluoro-1,4,5,6-tetrahydropyrimidin-2-yl)amino)-1H-indazole-6-carboxamido)acetamido)propanoic acid]	< 3
O=C(O)C[C@H](NC(=O)CNC(=O)c1cc(NC2=NCC(F)CN2)c2cn[nH]c2c1)c1cc(OC(F)F)cc(-n2cccn2)c1 (stereo partly drawn) [Example 29-(b), (3S)-3-(3-(difluoromethoxy)-5-(1H-pyrazol-1-yl)phenyl)-3-(2-(4-((5-fluoro-1,4,5,6-tetrahydropyrimidin-2-yl)amino)-1H-indazole-6-carboxamido)acetamido)propanoic acid]	< 3
O=C(O)C[C@H](NC(=O)CNC(=O)c1cc(NC2=NCC(F)CN2)c2cn[nH]c2c1)c1cc(OC(F)F)cc(OC(F)F)c1 (stereo partly drawn) [Example 30-(b), (3S)-3-(3,5-bis(difluoromethoxy)phenyl)-3-(2-(4-((5-fluoro-1,4,5,6-tetrahydropyrimidin-2-yl)amino)-1H-indazole-6-carboxamido)acetamido)propanoic acid]	< 3
O=C(O)C[C@H](NC(=O)CNC(=O)c1cc(NC2=NCC(F)CN2)c2cn[nH]c2c1)c1cc(Cl)cc(OC(F)(F)F)c1 (stereo partly drawn) [Example 31-(b), (3S)-3-(3-chloro-5-(trifluoromethoxy)phenyl)-3-(2-(4-((5-fluoro-1,4,5,6-tetrahydropyrimidin-2-yl)amino)-1H-indazole-6-carboxamido)acetamido)propanoic acid]	< 3
O=C(O)C[C@H](NC(=O)CNC(=O)c1cc(NC2=NCC(F)CN2)c2cn[nH]c2c1)c1cc(Br)cc(OC(F)(F)F)c1 (stereo partly drawn) [Example 32-(b), (3S)-3-(3-bromo-5-(trifluoromethoxy)phenyl)-3-(2-(4-((5-fluoro-1,4,5,6-tetrahydropyrimidin-2-yl)amino)-1H-indazole-6-carboxamido)acetamido)propanoic acid]	< 3
O=C(O)C[C@H](NC(=O)CNC(=O)c1cc(NC2=NCC(F)CN2)c2cn[nH]c2c1)c1cc(OC(F)(F)F)ccc1F (stereo partly drawn) [Example 33-(b), (3S)-3-(2-(4-((5-fluoro-1,4,5,6-tetrahydropyrimidin-2-yl)amino)-1H-indazole-6-carboxamido)acetamido)-3-(2-fluoro-5-(trifluoromethoxy)phenyl)propanoic acid]	< 3
O=C(O)C[C@H](NC(=O)CNC(=O)c1cc(NC2=NCC(F)CN2)c2cn[nH]c2c1)c1ccc(F)c(OC(F)(F)F)c1 (stereo partly drawn) [Example 34-(b), (3S)-3-(2-(4-((5-fluoro-1,4,5,6-tetrahydropyrimidin-2-yl)amino)-1H-indazole-6-carboxamido)acetamido)-3-(4-fluoro-3-(trifluoromethoxy)phenyl)propanoic acid]	< 3
O=C(O)C[C@H](NC(=O)CNC(=O)c1cc(NC2=NCC(F)CN2)c2cn[nH]c2c1)c1cccc(C(F)(F)F)c1 (stereo partly drawn) [Example 35-(b), (3S)-3-(2-(4-((5-fluoro-1,4,5,6-tetrahydropyrimidin-2-yl)amino)-1H-indazole-6-carboxamido)acetamido)-3-(3-(trifluoromethyl)phenyl)propanoic acid]	< 3
O=C(O)C[C@H](NC(=O)CNC(=O)c1cc(NC2=NCC(F)CN2)c2cn[nH]c2c1)c1cccc(OC(F)(F)F)c1 (stereo partly drawn) [Example 36-(b), (3S)-3-(2-(4-((5-fluoro-1,4,5,6-tetrahydropyrimidin-2-yl)amino)-1H-indazole-6-carboxamido)acetamido)-3-(3-(trifluoromethoxy)phenyl)propanoic acid]	< 3
O=C(O)C[C@H](NC(=O)CNC(=O)c1cc(NC2=NCC(F)CN2)c2cn[nH]c2c1)c1cccc(OC(F)F)c1 (stereo partly drawn) [Example 37-(b), (3S)-3-(3-(difluoromethoxy)phenyl)-3-(2-(4-((5-fluoro-1,4,5,6-tetrahydropyrimidin-2-yl)amino)-1H-indazole-6-carboxamido)acetamido)propanoic acid]	< 3
O=C(O)C[C@H](NC(=O)CNC(=O)c1cc(NC2=NCC(F)CN2)c2cn[nH]c2c1)c1cccc(C(F)F)c1 (stereo partly drawn) [Example 38-(b), (3S)-3-(3-(difluoromethyl)phenyl)-3-(2-(4-((5-fluoro-1,4,5,6-tetrahydropyrimidin-2-yl)amino)-1H-indazole-6-carboxamido)acetamido)propanoic acid]	< 3
O=C(O)C[C@H](NC(=O)CNC(=O)c1cc(NC2=NCC(F)CN2)c2cn[nH]c2c1)c1cccc(C2CC2)c1 (stereo partly drawn) [Example 39-(b), (3S)-3-(3-cyclopropylphenyl)-3-(2-(4-((5-fluoro-1,4,5,6-tetrahydropyrimidin-2-yl)amino)-1H-indazole-6-carboxamido)acetamido)propanoic acid]	< 3
O=C(O)C[C@H](NC(=O)CNC(=O)c1cc(NC2=NCC(F)CN2)c2cn[nH]c2c1)c1cccc(OC2CC2)c1 (stereo partly drawn) [Example 40-(b), (3S)-3-(3-cyclopropoxyphenyl)-3-(2-(4-((5-fluoro-1,4,5,6-tetrahydropyrimidin-2-yl)amino)-1H-indazole-6-carboxamido)acetamido)propanoic acid]	< 3
O=C(O)C[C@H](NC(=O)CNC(=O)c1cc(NC2=NCC(F)CN2)c2cn[nH]c2c1)c1cccc(Cl)c1 (stereo partly drawn) [Example 41-(b), (3S)-3-(3-chlorophenyl)-3-(2-(4-((5-fluoro-1,4,5,6-tetrahydropyrimidin-2-yl)amino)-1H-indazole-6-carboxamido)acetamido)propanoic acid]	< 3
O=C(O)C[C@H](NC(=O)CNC(=O)c1cc(NC2=NCC(F)CN2)c2cn[nH]c2c1)c1cccc(Br)c1 (stereo partly drawn) [Example 42-(b), (3S)-3-(3-bromophenyl)-3-(2-(4-((5-fluoro-1,4,5,6-tetrahydropyrimidin-2-yl)amino)-1H-indazole-6-carboxamido)acetamido)propanoic acid]	< 3
O=C(O)C[C@H](NC(=O)CNC(=O)c1cc(NC2=NCC(F)CN2)c2cn[nH]c2c1)c1cccc(-n2cccn2)c1 (stereo partly drawn) [Example 43-(b), (3S)-3-(3-(1H-pyrazol-1-yl)phenyl)-3-(2-(4-((5-fluoro-1,4,5,6-tetrahydropyrimidin-2-yl)amino)-1H-indazole-6-carboxamido)acetamido)propanoic acid]	< 3
Cc1cc(C)n(-c2cccc([C@H](CC(=O)O)NC(=O)CNC(=O)c3cc(NC4=NCC(F)CN4)c4cn[nH]c4c3)c2)n1 (stereo partly drawn) [Example 44-(b), (3S)-3-(3-(3,5-dimethyl-1H-pyrazol-1-yl)phenyl)-3-(2-(4-((5-fluoro-1,4,5,6-tetrahydropyrimidin-2-yl)amino)-1H-indazole-6-carboxamido)acetamido)propanoic acid]	< 3
